US8017584B2, “GD3-mimetic peptides” (Otsuka Pharmaceutical Co., Ltd., priority 2000, dated 2011)
“And” between values parts separate entries of the source, which are not always exact repeats. Identical values can stand only once.

How the values were obtained:
[1] = Titer against GD3 (ELISA) of antiserum from mice immunized with MAP peptides (Example 4); format: in vivo, mice (C57BL/6); conditions: individual mice
Procedure: Four species of GD3-mimetic peptide (MAP) obtained in Example 3 (2) was dissolved in PBS so as to attain a concentration of 200 μg/mL. The solution was added to Freund's complete (or incomplete) adjuvant (1:1, by volume), to thereby prepare an emulsion.
Eight mice (C57BL/6) were immunized by subcutaneous administration of the above emulsion (0.2 mL/mouse, in one administration, […]). Administration was performed every two weeks (for the second and subsequent administrations, Freund's incomplete adjuvant was used). After one week following respective administrations, blood was collected from the tail of each mouse, to thereby yield antiserum.
The antiserum obtained directly after the first administration will be referred to “1-st,” that obtained after the second administration will be referred to “2-nd,” and that obtained after the third administration will be referred to “3-rd.”
The titer, against GD3, of each of the antiserum samples (3×8 mice=24 samples) obtained in the (1) above was measured through ELISA as described below.
The thus-obtained purified GD3 was dissolved in methanol, whereby a GD3 solution having a concentration of 10 μg/mL was prepared. The GD3 solution was added to the wells of a 96-well micro-titer plate in amounts of 10 μL per well (which corresponds to 100 ng GD3 per well), and methanol was evaporated. Subsequently, a blocking solution (TBS supplemented with 1% BSA) was added to the wells in amounts of 50 μL per well, for blocking at 37° C. for 4 hours.
The supernatant was discarded. Each of the antiserum samples obtained in (1) above was diluted 100-fold, 400-fold, or 1,600 fold with the above-mentioned blocking solution. The diluted antiserum (50 μL) was added to each well for reaction at 4° C. overnight. The well was washed six times with TBS, and thereafter, HRP-labeled […] diluted 5,000-fold with the blocking solution was added (50 μL per well) for reaction for 2 hours at room temperature. The well was washed four times with TBS, and thereafter, enzymatic activity (peroxidase) of the well was detected with TMB solution (50 μL). The reaction was stopped with 1N HCl (50 μL), and the value corresponding to “420 nm-620 nm” was calculated.
A control sample was prepared as follows. […] The synthesized peptide was administered to a mouse for immunization, and the obtained antiserum served as a control sample. The titer of the control sample was obtained in a manner similar to that described above. (However, the number of provided mice was five, and only a 100-fold diluted solution was used.) This control peptide sample was also used in the form of MAP as described above.

[2] = system: GD3 antibody 4F6; test: ELISA of immobilized phage clones with GD3 antibody 4F6 (Example 2); format: binding, mouse; conditions: phage clone immobilized, duplicate lines
Procedure: A 0.1M NaHCO3 solution containing each of the phage clones obtained in Example 1 (10^11, 10^10, or 10^9 titer/100 μL) was added to the wells of a 96-well microtiter plate (product of Nunc), for immobilization of the phage clones at room temperature for one hour. The supernatant was removed, then the wells were subjected to blocking by use of a blocking solution ([…]; TBS containing 1% BSA, 0.1% skim milk, and 0.02% Tween 20; pH 7.5) at 37° C. for four hours.
The supernatant was removed, then GD3 antibody 4F6 (100 μL), serving as a primary antibody, was added to each well for reaction under shaking at room temperature for two hours. After completion of reaction, the supernatant was removed, then the wells were washed six times with a washing solution (400 μL for each well, TBS containing 0.05% Tween 20). Subsequently, a secondary antibody (anti-mouse IgG-HRP, product of Santa Cruz Biotechnology, catalogue No. SC-2031, Lot. No. C089) which was diluted 5,000-fold by use of a blocking solution prepared in advance was added to the wells (100 μL to each well) for reaction under shaking at room temperature for one hour. After completion of reaction, the wells were washed four times with a washing solution (400 μL for each well), then a detection reagent (TMB Microwell; product of KPL, Catalogue No. 50-76-04, Lot. No. WF075) was added to the wells (100 μL to each well), and the mixture was allowed to stand for five minutes at room temperature.
1N-Hydrochloric acid (100 μL) was added to each well for stopping the reaction. Absorbance of each well was measured at 450 nm and 620 nm, and “OD450-OD620” was calculated. A Multiscan (product of Labosystems) was used in measurement of absorbance. A well in which phages had not been immobilized served as a blank, and the absorbance of each well was determined by subtracting the blank value from the “as-measured” value.

[3] = system: T-cell-rich lymphocytes / IL-2-dependent CTLL2 cells; test: Cell response test: IL-2 activity (3H thymidine up-take of CTLL2 cells) in supernatant of spleen cells of mice immunized with GD3; format: cell-based, mouse; conditions: for 3H Thymidine up-take into CTLL2 cells, mean ± SE (4 wells): mice immunized with GD3
Procedure: Similar to the case of immunization with R4-KLH, antiserum samples were also prepared through immunization with GD3 (30 μg).
The spleen aseptically removed from each of the above-immunized mice was minced in a 10% FCS-supplemented RPMI 1640 medium. By use of a nylon wool column, T-cell-rich lymphocytes were prepared and the cells were counted. The above medium containing the cells in an amount of 10^5 cells per 150 μL was added to each of the wells of a culture plate. PHA was added so as to attain a final concentration of 1 μg/mL. A peptide of the present invention or any of different gangliosides in PBS was added, and the mixture was incubated for 96 hours. A supernatant (100 μL) was obtained from each well. The IL-2 activity of the supernatant was determined through use of IL-2-dependent mouse cells, CTLL2. Briefly, the supernatant (100 μL) diluted 2 to 50-fold with a medium was added to the wells in an amount of 10^4 CTLL2 cells/well, followed by incubation at 37° C. for 48 hours. Subsequently, 3H-thymidine (0.5 μCi) was added to each well, followed by incubation for 6 hours. CTLL2 cells were recovered on a paper filter and counted for 3H.

[4] = antiserum 1st (after first administration), dilution factor 1/100, MAP 5 μg/mouse s.c.
[5] = antiserum 1st, dilution factor 1/400
[6] = antiserum 1st, dilution factor 1/1600
[7] = antiserum 2nd (after second administration), dilution factor 1/100
[8] = antiserum 2nd, dilution factor 1/400
[9] = antiserum 2nd, dilution factor 1/1600
[10] = antiserum 3rd (after third administration), dilution factor 1/100
[11] = antiserum 3rd, dilution factor 1/400
[12] = antiserum 3rd, dilution factor 1/1600
[13] = stimulant 1 μg/ml, supernatant dilution 1/20
[14] = stimulant 1 μg/ml, supernatant dilution 1/50
[15] = stimulant 1 μg/ml, supernatant dilution ½
[16] = stimulant 1 μg/ml, supernatant dilution ⅕
[17] = stimulant 2 μg/ml, supernatant dilution 1/20
[18] = stimulant 2 μg/ml, supernatant dilution 1/50
[19] = stimulant 2 μg/ml, supernatant dilution ½
[20] = stimulant 2 μg/ml, supernatant dilution ⅕
[21] = stimulant 5 μg/ml, supernatant dilution 1/20
[22] = stimulant 5 μg/ml, supernatant dilution 1/50
[23] = stimulant 5 μg/ml, supernatant dilution ½
[24] = stimulant 5 μg/ml, supernatant dilution ⅕

| Sequence | reactivity of antiserum with GD3 (ELISA absorbance) [1, 4] | reactivity of antiserum with GD3 (ELISA absorbance) [1, 5] | reactivity of antiserum with GD3 (ELISA absorbance) [1, 6] | reactivity of antiserum with GD3 (ELISA absorbance) [1, 7] | reactivity of antiserum with GD3 (ELISA absorbance) [1, 8] | reactivity of antiserum with GD3 (ELISA absorbance) [1, 9] | reactivity of antiserum with GD3 (ELISA absorbance) [1, 10] | reactivity of antiserum with GD3 (ELISA absorbance) [1, 11] | reactivity of antiserum with GD3 (ELISA absorbance) [1, 12] | absorbance OD450-OD620, binding to GD3 antibody 4F6 ([2]; 10^9 titer/well) | 3H Thymidine up-take into CTLL2 cells, mean ± SE (4 wells) [3, 13] | 3H Thymidine up-take into CTLL2 cells, mean ± SE (4 wells) [3, 14] | 3H Thymidine up-take into CTLL2 cells, mean ± SE (4 wells) [3, 15] | 3H Thymidine up-take into CTLL2 cells, mean ± SE (4 wells) [3, 16] | 3H Thymidine up-take into CTLL2 cells, mean ± SE (4 wells) [3, 17] | 3H Thymidine up-take into CTLL2 cells, mean ± SE (4 wells) [3, 18] | 3H Thymidine up-take into CTLL2 cells, mean ± SE (4 wells) [3, 19] | 3H Thymidine up-take into CTLL2 cells, mean ± SE (4 wells) [3, 20] | 3H Thymidine up-take into CTLL2 cells, mean ± SE (4 wells) [3, 21] | 3H Thymidine up-take into CTLL2 cells, mean ± SE (4 wells) [3, 22] | also measured |
| --- | --- | --- | --- | --- | --- | --- | --- | --- | --- | --- | --- | --- | --- | --- | --- | --- | --- | --- | --- | --- | --- |
| GLAPPDYAERFELLS [GD3R3, tested as phage clone, MAP form or peptide] | 0.105 and 0.062 (2×) and 0.098 and 0.051 and 0.04 and 0.165 and 0.169 | 0.077 and 0.004 and 0.048 and 0.016 and 0.026 and 0.067 and 0.071 and 0.083 | 0.009 and 0.016 and 0.006 and 0.023 and 0.003 and 0.031 and 0.015 and 0.017 | 0.116 and 0.098 and 0.08 (2×) and 0.165 and 0.132 and 0.135 and 0.179 | 0.078 and 0.079 and 0.112 and 0.118 and 0.088 (2×) and 0.076 and 0.054 | 0.025 (2×) and 0.034 and 0.022 and 0.027 and 0.018 and 0.07 and 0.024 | 0.126 and 0.143 and 0.069 and 0.189 (2×) and 0.073 and 0.098 and 0.047 | 0.039 and 0.032 and 0.028 and 0.073 and 0.033 and 0.03 and 0.023 and 0.022 | 0.027 and 0.026 and 0.018 (3×) and 0.017 and 0.013 and 0.016 | 0.05 and 0.086 | 1153 ± 246 | 571 ± 104 | 4066 ± 853 | 2654 ± 486 | 1540 ± 467 | 749 ± 118 | 5791 ± 1154 | 3243 ± 634 | 1566 ± 328 | 761 ± 102 | absorbance OD450-OD620, binding to GD3 antibody 4F6 ([2]; 10^11 titer/well): 0.094 and 0.108; IL-2 production by T-cell-rich lymphocytes ([3]; lymphocytes from GD3-immunized mouse): production of IL-2 has been confirmed; 3H Thymidine up-take into CTLL2 cells, mean ± SE (4 wells) [3, 23]: 7536 ± 1247; 3H Thymidine up-take into CTLL2 cells, mean ± SE (4 wells) [3, 24]: 3528 ± 543 |
| PHFDSLLYPCELLGC (PHFDSLLYPCQLLGC) [GD3R2, tested as phage clone, MAP form or peptide] | 0.042 and 0.114 and 0.087 and 0.155 and 0.076 and 0.084 and 0.316 and 0.062 | 0.031 and 0.068 and 0.05 and 0.078 and 0.055 and 0.044 and 0.252 and 0.035 | 0.053 and 0.028 (2×) and 0.045 and 0.014 and 0.034 and 0.179 and 0.022 | 0.183 and 0.135 and 0.142 and 0.131 and 0.115 and 0.072 and 0.069 and 0.34 | 0.078 and 0.049 and 0.071 and 0.034 and 0.091 and 0.039 and 0.047 and 0.241 | 0.039 and 0.035 and 0.025 and 0.016 (2×) and 0.033 and 0.034 and 0.13 | 0.08 and 0.053 and 0.057 and 0.184 and 0.09 and 0.05 and 0.098 and 0.113 | 0.075 and 0.053 and 0.084 and 0.161 and 0.089 and 0.059 and 0.086 and 0.099 | 0.023 (2×) and 0.014 and 0.008 and 0.053 and 0.028 and 0.012 and 0.036 | 0.055 and 0.034 | 792 ± 88 | 185 ± 31 | 2957 ± 326 | 1784 ± 164 | 856 ± 107 | 192 ± 40 | 3057 ± 321 | 1719 ± 184 | 931 ± 124 | 203 ± 36 | absorbance OD450-OD620, binding to GD3 antibody 4F6 ([2]; 10^10 titer/well): 0.128 and 0.109; 3H Thymidine up-take into CTLL2 cells, mean ± SE (4 wells) [3, 23]: 3022 ± 316; 3H Thymidine up-take into CTLL2 cells, mean ± SE (4 wells) [3, 24]: 1717 ± 198 |
